Experimental data taken from US9708259B2 (Hoffmann-La Roche Inc., priority 2013, dated 2017).
Changes are numbered by the printed parent chain. Where two headings read alike, the source gives them in different places.

Tests used:
human M1 = target: T1, human M1 (Homo sapiens, UniProt P11229); assay: M1 PAM assay (FLIPR intracellular calcium), human M1; assay type: cell-based
T1 construct: expressed in transfected cells; host or cells: CHO cells
T1 sequence (P11229 1-460): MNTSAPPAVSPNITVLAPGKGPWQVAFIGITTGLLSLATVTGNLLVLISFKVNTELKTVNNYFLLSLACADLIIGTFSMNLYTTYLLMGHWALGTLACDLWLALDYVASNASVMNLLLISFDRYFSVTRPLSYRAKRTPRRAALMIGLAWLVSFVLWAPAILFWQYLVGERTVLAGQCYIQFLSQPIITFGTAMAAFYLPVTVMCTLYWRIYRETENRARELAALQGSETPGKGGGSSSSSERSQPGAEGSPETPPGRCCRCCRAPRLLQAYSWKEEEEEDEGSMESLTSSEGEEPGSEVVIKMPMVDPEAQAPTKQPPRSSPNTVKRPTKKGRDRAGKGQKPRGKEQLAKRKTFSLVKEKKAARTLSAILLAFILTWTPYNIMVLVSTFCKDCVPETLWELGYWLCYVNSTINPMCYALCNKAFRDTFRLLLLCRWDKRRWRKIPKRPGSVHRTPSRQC
Summary of the method: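 CHO cells expressing M1, Fluo-4AM-loaded, in HEPES/probenecid HBSS pH 7.4, 1% DMSO final. Compounds pre-incubated 2 min for agonist activity versus 30 nM acetylcholine control. For PAM activity, acetylcholine EC20 added after the 2 min pre-incubation, then 2 min more before FLIPR intracellular Ca2+ read.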

ratM1 = target: T2, ratM1 (Rattus norvegicus, UniProt P08482); assay: M1 PAM assay (FLIPR intracellular calcium), rat M1; assay type: cell-based
T2 construct: expressed in transfected cells; host or cells: CHO cells (stated generally for the assay, not specifically for rat M1)
T2 sequence (P08482 1-460): T1 sequence (P11229 1-460) with A5V, T254S, P309S, R320K, A337G, I413V

[1] = CHO human M1 cells, FLIPR Ca2+, with EC20 of acetylcholine, first value of the cell, read-out: hM1 EC50
[2] = rat M1, FLIPR Ca2+, second value of the cell, read-out: ratM1 EC50

Row | SMILES | EC50 (human M1) [nM] | EC50 (ratM1) [nM] | EC50 (human M1; [1]) [nM] | EC50 (ratM1; [2]) [nM]
1 | Cn1cnc2cc(Cn3cc(C(=O)N[C@H]4CCCC[C@@H]4O)c4c(F)cccc43)ccc21 [Example 56, 4-fluoro-N-((1S,2S)-2-hydroxycyclohexyl)-1-((1-methyl-1H-benzo[d]yridine-5-yl)methyl)-1H-indole-3-carboxamide] | 136 | 285 |  | 
2 | O=C(N[C@H]1CCCC[C@@H]1O)c1cn(Cc2ccc(N3CCCC3)cc2)c2cccc(F)c12 [Example 161, 4-fluoro-N-((1S,2S)-2-hydroxycyclohexyl)-1-(4-(pyrrolidin-1-yl)benzyl)-1H-indole-3-carboxamide] |  |  | 121 | 307
3 | CNC(=O)c1ccc(Cn2cc(C(=O)NC)c3c(F)cccc32)cc1 [Example 110, 4-fluoro-N-methyl-1-[[4-(methylcarbamoyl)phenyl]methyl]indole-3-carboxamide] |  |  | 141 | 482
4 | Cn1cc(-c2ccc(Cn3cc(C(=O)N[C@@H]4CCCC[C@H]4O)c4c(F)cccc43)c(F)c2)cn1 [Example 2] |  |  | 39 | 208
5 | Cn1cc(-c2ccc(Cn3cc(C(=O)N[C@H]4CCOC[C@@H]4O)c4c(F)cccc43)cc2)cn1 (single isomer, unassigned) [Example 55, 4-fluoro-N-((3R,4S) or (3S,4R)-3-hydroxytetrahydro-2H-pyran-4-yl)-1-(4-(1-methyl-1H-pyrazol-4-yl)benzyl)-1H-indole-3-carboxamide] |  |  | 2.11 | 2.82
6 | O=C(N[C@H]1CCCC[C@@H]1O)c1cn(Cc2ccc(-c3cccnc3)cc2)c2cccc(F)c12 [Example 159, 4-Fluoro-N-((1S,2S)-2-hydroxycyclohexyl)-1-(4-(pyridin-3-yl)benzyl)-1H-indole-3-carboxamide] |  |  | 20 | 47
7 | O=C(N[C@H]1CCCC[C@@H]1O)c1cn(Cc2ccc(-c3ccccc3)cn2)c2cccc(F)c12 [Example 140] |  |  | 103 | 518
8 | CCc1ccc(F)c2c(C(=O)NC3CCOCC3)cn(Cc3ccc(-c4cnn(C)c4)cc3)c12 [Example 108, 7-ethyl-4-fluoro-1-(4-(1-methyl-1H-pyrazol-4-yl)benzyl)-N-(tetrahydro-2H-pyran-4-yl)-1H-indole-3-carboxamide] |  |  | 414 | 952
9 | O=C(N[C@H]1CCCC[C@@H]1O)c1cn(Cc2ccc(-c3nc[nH]n3)cc2)c2cccc(F)c12 [Example 156, 1-(4-(1H-1,2,4-triazol-3-yl)benzyl)-4-fluoro-N-((1S,2S)-2-hydroxycyclohexyl)-1H-indole-3-carboxamide] |  |  | 3 | 10
10 | CNC(=O)c1ccc(Cn2cc(C(=O)NC3CCCCC3F)c3c(F)cccc32)cc1F (stereo not drawn) [Example 129, 4-fluoro-1-(3-fluoro-4-(methylcarbamoyl)benzyl)-N-(2-fluorocyclohexyl)-1H-indole-3-carboxamide] |  |  | 27 | 66
11 | Cn1cc(-c2ccc(Cn3cc(C(=O)N[C@H]4CCOC[C@@H]4O)c4c(F)c(F)c(F)c(F)c43)c(F)c2)cn1 (single isomer, unassigned) [Example 64, 4,5,6,7-Tetrafluoro-1-(2-fluoro-4-(1-methyl-1H-pyrazol-4-yl)benzyl)-N-((3R,4S) or (3S,4R))-3-hydroxytetrahydro-2H-pyran-4-yl)-1H-indole-3-carboxamide] |  |  | 54.7 | 79.9
12 | Cn1cc(-c2ccc(Cn3cc(C(=O)NCC4CCO4)c4c(F)cccc43)cc2)cn1 (stereo not drawn) [Example 14, 4-fluoro-1-(4-(1-methyl-1H-pyrazol-4-yl)benzyl)-N-(oxetan-2-ylmethyl)-1H-indole-3-carboxamide] |  |  | 121 | 198
13 | CCc1ccc(F)c2c(C(=O)NC3CCOCC3)cn(Cc3ccc4c(cnn4C)c3)c12 [Example 128, 7-ethyl-4-fluoro-1-((1-methyl-1H-indazol-5-yl)methyl)-N-(tetrahydro-2H-pyran-4-yl)-1H-indole-3-carboxamide] | 289 | 1240 |  | 
14 | O=C(N[C@H]1CCOC[C@@H]1O)c1cn(Cc2ccc(N3CCCC3=O)cc2)c2cccc(F)c12 [Example 84, 4-fluoro-N-((3R,4S)-3-hydroxytetrahydro-2H-pyran-4-yl)-1-(4-(2-oxopyrrolidin-1-yl)benzyl)-1H-indole-3-carboxamide] |  |  | 182 | 169
15 | Cn1cc(-c2ccc(Cn3nc(C(=O)N[C@@H]4CCCC[C@H]4O)c4c(F)cccc43)c(F)c2)cn1 [Example 4, 4-fluoro-1-(2-fluoro-4-(1-methyl-1H-pyrazol-4-yl)benzyl)-N-((1R,2R)-2-hydroxycyclohexyl)-1H-indazole-3-carboxamide] |  |  | 295 | 1290
16 | NC(=O)Cc1ccc(Cn2cc(C(=O)N[C@H]3CCCC[C@@H]3O)c3c(F)cccc32)cc1 [Example 80, 1-(4-(2-amino-2-oxoethyl)benzyl)-4-fluoro-N-((1S,2S)-2-hydroxycyclohexyl)-1H-indole-3-carboxamide] |  |  | 110 | 263
17 | Cn1cc(-c2ccc(Cn3cc(CC(=O)N[C@H]4CCCC[C@@H]4O)c4c(F)cccc43)c(F)c2)cn1 [Example 93, 2-(4-fluoro-1-(2-fluoro-4-(1-methyl-1H-pyrazol-4-yl)benzyl)-1H-indol-3-yl)-N-((1S,2S)-2-hydroxycyclohexyl)acetamide] |  |  | 191 | 1880
18 | Cn1cc(-c2ccc(Cn3cc(C(=O)NC4CCC4)c4c(F)cccc43)cc2)cn1 [Example 11, N-cyclobutyl-4-fluoro-1-(4-(1-methyl-1H-pyrazol-4-yl)benzyl)-1H-indole-3-carboxamide] |  |  | 413 | 618
19 | Cn1cc(-c2ccc(Cn3cc(C(=O)NC4CCCOC4)c4c(F)cccc43)c(F)c2)cn1 (stereo not drawn) [Example 19, 4-fluoro-1-(2-fluoro-4-(1-methyl-1H-pyrazol-4-yl)benzyl)-N-(tetrahydro-2H-pyran-3-yl)-1H-indole-3-carboxamide] |  |  | 229 | 579
20 | Cc1ccc(F)c2c(C(=O)NC3CCOCC3)cn(Cc3ccc(-c4cnn(C)c4)cc3)c12 [Example 49, 4-fluoro-7-methyl-1-(4-(1-methyl-1H-pyrazol-4-yl)benzyl)-N-(tetrahydro-2H-pyran-4-yl)-1H-indole-3-carboxamide] |  |  | 44.5 | 52.5
21 | CNC(=O)c1ccc(Cn2cc(C(=O)NC3CCCCC3)c3c(F)cccc32)cc1 [Example 114, N-cyclohexyl-4-fluoro-1-[[4-(methylcarbamoyl)phenyl]methyl]indole-3-carboxamide] |  |  | 17 | 15
22 | CNC(=O)c1ccc(Cn2cc(C(=O)NC3CCCOC3)c3c(F)cccc32)cc1 (stereo not drawn) [Example 122, 4-fluoro-1-[[4-(methylcarbamoyl)phenyl]methyl]-N-(oxan-3-yl)indole-3-carboxamide] |  |  | 62 | 154
23 | O=C(N[C@H]1CCCC[C@@H]1O)c1cn(Cc2ccc(F)cc2)c2cccc(F)c12 [Example 42, 4-fluoro-1-(4-fluorobenzyl)-N-((1S,2S)-2-hydroxycyclohexyl)-1H-indole-3-carboxamide] | 110 | 200 |  | 
24 | O=C(N[C@H]1CCCC[C@@H]1O)c1cn(Cc2ccc(-c3cnco3)cc2)c2cccc(F)c12 [Example 137, 4-fluoro-N-((1S,2S)-2-hydroxycyclohexyl)-1-(4-(oxazol-5-yl)benzyl)-1H-indole-3-carboxamide] |  |  | 9 | 34
25 | Cn1cc(-c2ccc(Cn3cc(C(=O)N[C@H]4CCC[C@@H]4O)c4c(F)cccc43)c(F)c2)cn1 [Example 17, 4-Fluoro-1-(2-fluoro-4-(1-methyl-1H-pyrazol-4-yl)benzyl)-N-((1S,2S)-2-hydroxycyclopentyl)-1H-indole-3-carboxamide] |  |  | 100 | 169
26 | COc1ccc(F)c2c(C(=O)NC3CCOCC3)cn(Cc3ccc(-c4cnn(C)c4)cc3)c12 [Example 151, 4-fluoro-7-methoxy-1-(4-(1-methyl-1H-pyrazol-4-yl)benzyl)-N-(tetrahydro-2H-pyran-4-yl)-1H-indole-3-carboxamide] |  |  | 194 | 299
27 | O=C(N[C@H]1CCCC[C@@H]1O)c1cn(Cc2ccc(-c3ccccc3)nc2)c2cccc(F)c12 [Example 131, 4-fluoro-N-((1S,2S)-2-hydroxycyclohexyl)-1-((6-phenylpyridin-3-yl)methyl)-1H-indole-3-carboxamide] |  |  | 36 | 152
